# Assay results: PMC12473123, “Structure–Function Insights into Quinuclidine-3-One BisQACs: Synthesis, Modulation of Bacterial Resistance, Structure–Activity Relationship, and Biological Profiling” (Pharmaceuticals, 2025)
# Key:
# Type in all cases: cell-based
# [1] = tested on: Staphylococcus aureus ATCC 25923; assay: Broth microdilution MIC; conditions: Staphylococcus aureus, ATCC25923, read-out: Minimum Inhibitory Concentrations (MIC)
# [2] = tested on: Staphylococcus aureus ATCC 33591 (methicillin-resistant); assay: Broth microdilution MIC; conditions: Staphylococcus aureus, ATCC33591, read-out: Minimum Inhibitory Concentrations (MIC)
# [3] = tested on: Staphylococcus aureus Clinical/MRSA; assay: Broth microdilution MIC; conditions: Staphylococcus aureus, MRSA, read-out: Minimum Inhibitory Concentrations (MIC)
# [4] = tested on: Bacillus cereus ATCC 14579; assay: Broth microdilution MIC; conditions: ATCC14579, read-out: Minimum Inhibitory Concentrations (MIC), Bacillus cereus ATCC 14579
# [5] = tested on: Listeria monocytogenes ATCC 7644; assay: Broth microdilution MIC; conditions: Listeria monocytogenes, ATCC7644, read-out: Minimum Inhibitory Concentrations (MIC), Listeria monocytogenes ATCC 7644
# [6] = tested on: Enterococcus faecalis ATCC 29212; assay: Broth microdilution MIC; conditions: Enterococcus faecalis, ATCC29212, read-out: Minimum Inhibitory Concentrations (MIC), Enterococcus faecalis ATCC 29212
# [7] = tested on: Escherichia coli ATCC 25922; assay: Broth microdilution MIC; conditions: Escherichia coli, ATCC25922, read-out: Minimum Inhibitory Concentrations (MIC)
# [8] = tested on: Salmonella enterica (food isolate); assay: Broth microdilution MIC; conditions: read-out: Minimum Inhibitory Concentrations (MIC)
# [9] = tested on: Pseudomonas aeruginosa ATCC 27853; assay: Broth microdilution MIC; conditions: Pseudomonas aeruginosa, ATCC27853, read-out: Minimum Inhibitory Concentrations (MIC)
# [10] = tested on: Staphylococcus aureus ATCC 25923; assay: Biofilm inhibition assay (crystal violet); conditions: S. aureus ATCC 25923, 50 µg/mL
# Description: (§1) The ability of the candidate compounds to inhibit biofilm formation was evaluated by determining the minimum biofilm inhibitory concentration (MBIC) against the biofilm-forming strains Staphylococcus aureus ATCC 25923 and Listeria monocytogenes ATCC 7644. Overnight bacterial cultures were diluted in fresh, pre-warmed Mueller–Hinton broth (MHB) and incubated at 37 °C with constant shaking at 220 rpm. Once the cultures reached the exponential growth phase (OD600 = 0.3–0.5), they were standardized to a final concentration of 4 × 10^6 CFU/mL.
# (§2) Plates were incubated at 37 °C for 24 to 48 h, depending on the bacterial strain. After incubation, the planktonic cells were carefully aspirated to preserve the integrity of the biofilm layer. Wells were gently rinsed with sterile ultrapure Milli-Q water and air-dried at 60 °C for 1 h to fix the biofilms. Biofilm formation was quantified using a crystal violet (CV) staining method. Wells were stained with 100 µL of 0.1% CV solution and incubated at room temperature for 1 h. Excess dye was removed by rinsing with sterile ultrapure Milli-Q water, followed by air-drying. Bound CV was solubilized with 100 µL of 70% ethanol and incubated for 30 min. The solubilized dye was transferred to a fresh plate, and absorbance was measured at 595 nm using a microplate reader (Bio-Tek EL808, Winooski, VT, USA). Absorbance values were directly proportional to biofilm biomass. Untreated bacterial cultures served as positive controls for biofilm formation, while sterile MHB served as the negative control.
# [11] = tested on: Listeria monocytogenes ATCC 7644; assay: Biofilm inhibition assay (crystal violet); conditions: L. monocytogenes
# Description: as §1
# as §2, with “Aliquots (50 µL) of the standardized bacterial suspension were inoculated into 96-well microtiter plates containing the test compounds at final concentrations of 100, 50, 25, and 12.5 µg/mL. Plates” for “Plates”
SMILES,MIC [1] [µM],MIC [2] [µM],MIC [3] [µM],MIC [4] [µM],MIC [5] [µM],MIC [6] [µM],MIC [7] [µM],MIC [8] [µM],MIC [9] [µM],biofilm inhibition [10] [%],biofilm inhibition ([11]; 12.5 µg/mL),"inhibition at 25 µg/mL ([11]; Listeria monocytogenes, ATCC7644, 25 µg/mL, read-out: biofilm inhibition) [%]","inhibition at 50 µg/mL ([11]; Listeria monocytogenes, ATCC7644, 50 µg/mL, read-out: biofilm inhibition) [%]","inhibition at 100 µg/mL ([11]; Listeria monocytogenes, ATCC7644, 100 µg/mL, read-out: biofilm inhibition) [%]"
"O=C1C[N+]2(CCCC[N+]34CCC(CC3)C(=O)C4)CCC1CC2 [2(QO)4, 1,1′-(Butane-1,4-diyl) bis(3-oxoquinuclidinium) dibromide]",> 75,> 75,> 75,> 75,> 75,> 75,> 75,> 75,> 75,,,,,
"O=C1C[N+]2(CCCCCC[N+]34CCC(CC3)C(=O)C4)CCC1CC2 [2(QO)6, 1,1′-(Hexane-1,6-diyl) bis(3-oxoquinuclidinium) dibromide]",> 75,> 75,> 75,> 75,> 75,> 75,> 75,> 75,> 75,,,,,
"CCCCCCCCCCCCNC1C[N+]2(CCCCCC[N+]34CCC(CC3)C(NCCCCCCCCCCCC)C4)CCC1CC2 (racemic) [2(QC12)6, (±)-1,1′-(Hexane-1,6-diyl) bis(3-(dodecylamino)quinuclidinium) dibromide]",75,19,> 75,> 75,38,75,38,> 75,> 75,,,,,
"CCCCCCCCCCCCCCNC1C[N+]2(CCC[N+]34CCC(CC3)C(NCCCCCCCCCCCCCC)C4)CCC1CC2 (racemic) [2(QC14)3, (±)-1,1′-(Propane-1,3-diyl) bis(3-(tetradecylamino)quinuclidinium) dibromide]",75,75,> 75,> 75,38,> 75,> 75,> 75,> 75,,,,,
"CCCCCCCCCCCCCCNC1C[N+]2(CCCC[N+]34CCC(CC3)C(NCCCCCCCCCCCCCC)C4)CCC1CC2 (racemic) [2(QC14)4, (±)-1,1′-(Butane-1,4-diyl) bis(3-(tetradecylamino)quinuclidinium) dibromide]",> 75,75,> 75,> 75,> 75,> 75,> 75,> 75,> 75,,,,,
"CCCCCCCCCCCCNC1C[N+]2(CCC[N+]34CCC(CC3)C(NCCCCCCCCCCCC)C4)CCC1CC2 (racemic) [2(QC12)3, (±)-1,1′-(Propane-1,3-diyl) bis(3-(dodecylamino)quinuclidinium) dibromide]",75,75,> 75,> 75,38,> 75,> 75,75,> 75,,,,,
"O=C1C[N+]2(CCC[N+]34CCC(CC3)C(=O)C4)CCC1CC2 [2(QO)3, 1,1′-(Propane-1,3-diyl) bis(3-oxoquinuclidinium) dibromide]",> 75,> 75,> 75,> 75,> 75,> 75,> 75,> 75,> 75,,,,,
"CCCCCCCCCCCCNC1C[N+]2(CCCC[N+]34CCC(CC3)C(NCCCCCCCCCCCC)C4)CCC1CC2 (racemic) [2(QC12)4, (±)-1,1′-(Butane-1,4-diyl) bis(3-(dodecylamino)quinuclidinium) dibromide]",> 75,75,> 75,> 75,75,> 75,> 75,> 75,> 75,,,,,
"CO/N=C(\C(=O)N[C@@H]1C(=O)N2C(C(=O)O)=C(COC(C)=O)CS[C@H]12)c1csc(N)n1 [CFX, cefotaxime, reference compound]",,,,,,,,,,62,similarly low values,6,> 20,> 20
